Experimental data: patent publication US5770573A, “CS-1 peptidomimetics, compositions and methods of using the same” (Cytel Corporation, priority 1995, dated 1998)
Square brackets hold non-standard residues; d marks the D form. Peptide text beside a SMILES is read from it. * marks the point of attachment. PhAc = O=C(Cc1ccccc1)*

Test system: Porcine peripheral blood lymphocytes
Assay: In vitro porcine allograft model: transendothelial lymphocyte migration
Type: cell-based
Conditions: 10 μg/ml in the medium; IL-1β-stimulated SMC
Protocol: A similar study was carried out in vitro using porcine coronary artery endothelial cells (EC; as are present in the IEL) and smooth muscle cells (SMC; as are present in the medial layer of the artery). The two cell types were cultured using a membrane transwell system, with the SMC on the bottom layer in M-199 medium (Gibco Labs.). The SMC were stimulated with 100 ng/ml of interleukin-1β (IL-1β) for 24 hours prior to the start of the assay. Porcine peripheral blood lymphocytes were separated by Ficoll-Hypaque, radiolabeled and incubated overnight (about 18 hours) on the EC.
Transendothelial lymphocyte migration in the IL-1β-stimulated SMC was observed as compared to unstimulated SMC (p<0.05).

CC(C)C[C@H](NC(=O)[C@H](CC(=O)O)NC(=O)Cc1ccccc1)C(=O)N[C@@H](Cc1ccccc1)C(=O)N1CCC[C@@H]1C(N)=O [Compound ID No. 1066.02, N-phenylacetyl-Asp-Leu-Phe-D-Pro-NH2, reference compound] (PhAc-DLF[dP]-NH2)
reduction of lymphocyte migration: did not reduce migration
